From patent US10000790B2, “Materials and methods for rapid visualization of NAD(P)H” (THE FLORIDA INTERNATIONAL UNIVERSITY BOARD OF TRUSTEES, priority 2015, dated 2018)

Legend:
[1] = system: glucose dehydrogenase (GDH); experiment: Inhibition of GDH-driven NADH production read out on the paper-based AuNP device; assay type: biochemical, Pseudomonas sp.
Experimental: (§1) To test the inhibitory effects of Hg(II), different concentrations of Hg(II) was incubated with 0.1 U GDH for 10 min in the presence of 10 mM of glucose and 0.1 M of phosphate buffer solution (pH 7.4) at 25 ° C., then 6 mM of NAD' was added to initiate the enzymatic reaction for […]. The kinetics of the reaction was monitored for the first 6 minutes in a microplate reader to calculate the enzyme's activity. 10 μL of the enzymatic reaction solution were added to 90 μL of 400 μM Au^3+-CTAB solution, and 25 μL of this solution was applied to the device test zone.
The colorimetric results were visualized after 4 minutes and evaluated for the inhibitory effects of these metals by measuring the decrease in the color intensity produced by the enzyme-substrate reaction. Ag(I) and Pb(II) were also tested as potential inhibitors in a similar fashion. Intensity analysis was performed using the ImageJ software.
Clearly, the GDH inhibition and AuNPs dissolution was increased with increasing Hg(II) concentration, with complete dissolution of AuNPs in the testing zone at a Hg(II) ion concentration of 100 μM (FIG. 6B, Hg(II)).
(§2) The resulting solution was then added into a 400 μM of Au^3+-CTAB solution, and 25 μL of this mixture were immediately applied to the testing zone. In the absence of Hg(II), GDH fully converted NAD^+ into NADH after 4 minutes, completely inhibiting AuNP dissolution and leaving the testing zone dark red (FIG. 17A). […] GDH-mediated production of NADH decreased in parallel with the increase of Hg(II) concentration, yielding a lighter readout as increased dissolution of AuNPs occurred (FIG. 17A). […] The color intensity was measured with the ImageJ software and the normalized intensity with different concentrations of Hg(II) was plotted (FIG. 17B). The kinetics of GDH in homogeneous solution was also monitored with or without Hg(II) ions (FIG. 18). Enzyme activity was calculated based on the kinetics of the enzymatic reaction and defined as 100% in the absence of Hg(II).

GDH = conditions: reference 43; cited from earlier work
[2] = target: glucose dehydrogenase (GDH); experiment: GDH activity in homogeneous solution, absorbance change at 340 nm; assay type: biochemical, Pseudomonas sp.; conditions: Hg(II) 0-200 μM, activity 100% without Hg(II), read-out: IC50 for inhibition of GDH in homogeneous solution
Experimental: The absorbance change at 340 nm was monitored to calculate enzyme activity. Hg(II) concentrations being tested ranged from 0-200 μM. The enzyme's activity was defined as 100% in the absence of the Hg(II) ion, and as the Hg(II) concentration increased the enzyme's activity decreased.
as §1, with “10 μL of the enzymatic reaction solution were added to 90 μL of 400 μM Au^3+-CTAB solution, and 25 μL of this solution was applied to the device test zone.” left out
as §2, with “zone.” for “zone. In the absence of Hg(II), GDH fully converted NAD^+ into NADH after 4 minutes, completely inhibiting AuNP dissolution and leaving the testing zone dark red (FIG. 17A).”

Row | Compound | activity of GDH ([1]; 20 μM or higher of the ion, completely white readout) | inhibitory effect on GDH (literature) (GDH) | inhibitory effect on GDH ([1]; 20 to 100 μM of the ion, no dissolution of AuNPs observed) | enzyme activity ([1]; 2.5 μM of the ion, small decrease of color intensity) | inhibition of AuNPs dissolution ([1]; 20 μM of the ion) | GDH activity ([1]; 20 μM of the ion, light pink color) | inhibition of GDH ([1]; 100 μM of the ion, completely white readout, complete dissolution of AuNPs) | IC50 ([1]; 0.1 U GDH, 0-200 μM Hg(II), 400 μM Au3+-CTAB, 4-min reaction, ImageJ intensity) [µM] | IC50 [2] [µM]
1 | O=[N+]([O-])[O-].[Ag+] [Ag(I), silver nitrate] | completely inhibited | strong inhibitors |  |  |  |  |  |  | 
2 | lead(II) acetate trihydrate [Pb(II)] |  | no inhibitory effect | no inhibitory effect |  |  |  |  |  | 
3 | CC(=O)[O-].CC(=O)[O-].[Hg+2] [Hg(II), mercury(II) acetate] |  | strong inhibitors |  | slightly inhibited | approximately 30% | significantly inhibited | complete inhibition | 20 | 18
